# Data from DBAASP.
# Key:
# Test in all cases: ≥ marks a high value that may be exact or a test limit, other limits are often not marked, values filed in µg/mL are converted to µM
# [1] = tested on: Alcaligenes faecalis MTCC 1937
# [2] = tested on: Alkalihalobacillus alcalophilus MTCC 860
# [3] = tested on: Shigella boydii MTCC 11947
# [4] = tested on: Salmonella enterica MTCC 9844
# [5] = tested on: Bordetella bronchiseptica MTCC 6837
# [6] = tested on: Acinetobacter baumannii MTCC 9829
# [7] = tested on: Proteus vulgaris MTCC 1771
# [8] = tested on: Vibrio cholerae MTCC 3904
# [9] = tested on: Proteus mirabilis MTCC 3158
# [10] = tested on: Haemophilus influenzae MTCC 621
# [11] = tested on: Corynebacterium glutamicum MTCC 2679
# [12] = tested on: Pluralibacter gergoviae MTCC 3826
# [13] = tested on: Pseudomonas aeruginosa MTCC 3542
# [14] = tested on: Staphylococcus aureus MTCC 3160
# [15] = tested on: Enterococcus faecalis MTCC 439
# [16] = tested on: Citrobacter freundii MTCC 1658
# [17] = tested on: Stenotrophomonas maltophilia MTCC 1890
# [18] = tested on: Klebsiella aerogenes MTCC 111
# [19] = tested on: Escherichia coli K12 MG1655
# [20] = tested on: Shigella flexneri MTCC 1457
# [21] = tested on: Klebsiella pneumoniae MTCC 7407
# [22] = tested on: Salmonella enterica subsp. enterica serovar Typhimurium ATCC 14028
# [23] = tested on: Staphylococcus haemolyticus MTCC 3383
# [24] = tested on: Citrobacter koseri MTCC 1657
# [25] = tested on: Klebsiella oxytoca MTCC 2275
# Escherichia coli C25 = tested on: Escherichia coli C25
# [26] = tested on: Staphylococcus aureus ATCC 25923
compound,measurement,setting,value
CC[C@H](C)[C@H](NC(=O)[C@@H](NC(=O)[C@H](CCC(N)=O)NC(=O)[C@H](CCCN=C(N)N)NC(=O)[C@H](C)NC(=O)[C@H](C)NC(=O)[C@H](C)NC(=O)[C@H](Cc1c[nH]c2ccccc12)NC(=O)[C@@H](N)CCC(=O)O)C(C)C)C(=O)N[C@H](C(=O)N[C@@H](Cc1cnc[nH]1)C(=O)N[C@@H](C)C(=O)N[C@H](C(=O)N[C@@H](CCCN=C(N)N)C(=O)N[C@@H](CCCCN)C(=O)N[C@@H](Cc1ccc(O)cc1)C(=O)O)[C@@H](C)O)[C@@H](C)CC [EWAAARQVIIHATRKY],MIC,[1],≥ 66.9 µM
same,MIC,[2],≥ 66.9 µM
same,MIC,[3],≥ 66.9 µM
same,MIC,[4],≥ 66.9 µM
same,MIC,[5],≥ 66.9 µM
same,MIC,[6],≥ 66.9 µM
same,MIC,[7],≥ 66.9 µM
same,MIC,[8],≥ 66.9 µM
same,MIC,[9],≥ 66.9 µM
same,MIC,[10],≥ 66.9 µM
same,MIC,[11],≥ 33.5 µM
same,MIC,[12],≥ 66.9 µM
same,MIC,[13],≥ 66.9 µM
same,MIC,[14],≥ 66.9 µM
same,MIC,[15],≥ 66.9 µM
same,MIC,[16],≥ 66.9 µM
same,MIC,[17],≥ 66.9 µM
same,MIC,[18],≥ 66.9 µM
same,MIC,[19],≥ 66.9 µM
same,MIC,[20],≥ 66.9 µM
same,MIC,[21],≥ 66.9 µM
same,MIC,[22],> 66.9 µM
same,MIC,[23],≥ 66.9 µM
same,MIC,[24],≥ 66.9 µM
same,MIC,[25],≥ 66.9 µM
CC[C@H](C)[C@H](NC(=O)CNC(=O)[C@H](CCCN=C(N)N)NC(=O)[C@@H](NC(=O)[C@@H](NC(=O)[C@H](CCCN=C(N)N)NC(=O)[C@@H](NC(=O)[C@@H](NC(=O)[C@@H](N)CCCCN)[C@@H](C)CC)[C@@H](C)CC)C(C)C)[C@@H](C)CC)C(=O)N[C@H](C(=O)N[C@@H](CCCN=C(N)N)C(=O)N[C@@H](CCCN=C(N)N)C(=O)N[C@@H](CCCN=C(N)N)C(N)=O)[C@@H](C)CC [KIIRVIRGIIRRR],MIC,Escherichia coli C25,9.5 µM
same,MIC,[26],9.5 µM
